Data as given in PubChem BioAssay AID248 (DTP/NCI, 2004).
Toxic doses and inconclusive results are not listed. No stated cut-off is given here; in the data, active means T/C of 150% or more; inactive means T/C below 125%.

Test system: L1210 leukemia ip in BDF1 mice, survival T/C
Assay: NCI In Vivo Anticancer Drug Screen. Data for tumor model L1210 Leukemia (intraperitoneal) in B6D2F1 (BDF1) mice
Conditions: endpoint: mean survival time, higher = longer survival
Procedure, shortened: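 Read-out is survival time, reported as the treated-group measurement over the vehicle-control measurement.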

[1] = dose: 100.0 mg/kg/injection, schedule: Q01DX001 (ip), vehicle: carboxymethylcellulose (CMC)
[2] = dose: 200.0 mg/kg/injection, schedule: Q01DX001 (ip), vehicle: carboxymethylcellulose (CMC)
[3] = dose: 400.0 mg/kg/injection, schedule: Q01DX001 (ip), vehicle: carboxymethylcellulose (CMC)
[4] = dose: 100.0 mg/kg/injection, schedule: Q01DX009 (ip), vehicle: Klucel (hydroxypropylcellulose) (HPC)
[5] = dose: 100.0 mg/kg/injection, schedule: Q04DX003 (ip), vehicle: Klucel (hydroxypropylcellulose) (HPC)
[6] = dose: 200.0 mg/kg/injection, schedule: Q01DX009 (ip), vehicle: Klucel (hydroxypropylcellulose) (HPC)
[7] = dose: 200.0 mg/kg/injection, schedule: Q04DX003 (ip), vehicle: Klucel (hydroxypropylcellulose) (HPC)
[8] = dose: 400.0 mg/kg/injection, schedule: Q04DX003 (ip), vehicle: Klucel (hydroxypropylcellulose) (HPC)
[9] = dose: 100.0 mg/kg/injection, schedule: Q01DX009 (ip), vehicle: saline with Tween-80
[10] = dose: 200.0 mg/kg/injection, schedule: Q01DX009 (ip), vehicle: saline with Tween-80
[11] = dose: 100.0 mg/kg/injection, schedule: Q01DX009 (ip), vehicle: saline
[12] = dose: 200.0 mg/kg/injection, schedule: Q01DX009 (ip), vehicle: saline
[13] = dose: 400.0 mg/kg/injection, schedule: Q01DX009 (ip), vehicle: saline
[14] = dose: 100.0 mg/kg/injection, schedule: Q04DX003 (ip), vehicle: saline with Tween-80

Measured: T/C

O=C1C(=O)c2ccccc2C(O)=C1c1ccc2ccccc2c1
inactive: dose: 50.0 mg/kg/injection, schedule: Q01DX001 (ip), vehicle: carboxymethylcellulose (CMC) 96 % of control | [1] 96 % of control | [2] 91 % of control | [3] 96 % of control

CCN(CC)C(N)=S
inactive: [4] 108 % of control | [5] 106 % of control | [6] 100 % of control | [7] 103 % of control | dose: 400.0 mg/kg/injection, schedule: Q01DX009 (ip), vehicle: Klucel (hydroxypropylcellulose) (HPC) 100 % of control | [8] 112 % of control

CCCCCCC(=O)/C=C\c1ccc([N+](C)(C)C)cc1
inactive: dose: 25.0 mg/kg/injection, schedule: Q01DX009 (sc), vehicle: steriod suspending solution 93 % of control | dose: 25.0 mg/kg/injection, schedule: Q04DX003 (sc), vehicle: steriod suspending solution 94 % of control | dose: 50.0 mg/kg/injection, schedule: Q01DX009 (sc), vehicle: steriod suspending solution 97 % of control | dose: 50.0 mg/kg/injection, schedule: Q04DX003 (sc), vehicle: steriod suspending solution 92 % of control | dose: 100.0 mg/kg/injection, schedule: Q01DX001 (sc), vehicle: steriod suspending solution 86 % of control | dose: 100.0 mg/kg/injection, schedule: Q04DX003 (sc), vehicle: steriod suspending solution 106 % of control

c1ccc(NCCOc2ccccc2)cc1
inactive: [4] 108 % of control | dose: 100.0 mg/kg/injection, schedule: Q04DX002 (ip), vehicle: Klucel (hydroxypropylcellulose) (HPC) 114 % of control | [6] 94 % of control | dose: 200.0 mg/kg/injection, schedule: Q04DX002 (ip), vehicle: Klucel (hydroxypropylcellulose) (HPC) 98 % of control | dose: 400.0 mg/kg/injection, schedule: Q04DX002 (ip), vehicle: Klucel (hydroxypropylcellulose) (HPC) 88 % of control

O=C(O)/C(Br)=C(\Br)c1ccccc1
inactive: [9] 101 % of control | [10] 92 % of control | dose: 400.0 mg/kg/injection, schedule: Q01DX009 (ip), vehicle: saline with Tween-80 95 % of control

O=C(N/N=C/c1ccccc1)c1ccccc1
inactive: [11] 102 % of control | dose: 100.0 mg/kg/injection, schedule: Q04DX003 (ip), vehicle: alcohol 98 % of control | [12] 104 % of control | dose: 200.0 mg/kg/injection, schedule: Q04DX003 (ip), vehicle: alcohol 95 % of control | [13] 96 % of control | dose: 400.0 mg/kg/injection, schedule: Q04DX003 (ip), vehicle: alcohol 90 % of control

COc1cc(/C=C\C(=O)c2ccccc2)c([N+](=O)[O-])cc1OC
inactive: dose: 100.0 mg/kg/injection, schedule: Q01DX001 (ip), vehicle: water 90 % of control | dose: 200.0 mg/kg/injection, schedule: Q01DX001 (ip), vehicle: water 88 % of control | dose: 400.0 mg/kg/injection, schedule: Q01DX001 (ip), vehicle: water 90 % of control

COc1ccc(OC)c(C2N(Cc3ccc(N(C)C)cc3)CCCN2Cc2ccc(N(C)C)cc2)c1
inactive: dose: 50.0 mg/kg/injection, schedule: Q01DX009 (ip), vehicle: saline with Tween-80 93 % of control | [9] 93 % of control | [10] 90 % of control

CCn1nnnc1-c1ccc(Cl)cc1
inactive: [14] 98 % of control | dose: 200.0 mg/kg/injection, schedule: Q04DX003 (ip), vehicle: saline with Tween-80 98 % of control | dose: 400.0 mg/kg/injection, schedule: Q04DX003 (ip), vehicle: saline with Tween-80 98 % of control

CC(C)(CCCC(C)(C)[N+](=O)[O-])[N+](=O)[O-]
inactive: dose: 100.0 mg/kg/injection, schedule: Q01DX001 (ip), vehicle: saline with Tween-80 101 % of control | dose: 200.0 mg/kg/injection, schedule: Q01DX001 (ip), vehicle: saline with Tween-80 94 % of control | dose: 400.0 mg/kg/injection, schedule: Q01DX001 (ip), vehicle: saline with Tween-80 101 % of control

O=c1c2ccccc2c2ccccc2n1C(c1ccccc1)c1ccccc1
inactive: [5] 98 % of control | [7] 88 % of control | [8] 88 % of control

O=C(/C(=C/c1ccc2c(c1)OCO2)c1ccccc1)c1ccc(OCCN2CCCC2)cc1
inactive: [1] 95 % of control | [2] 106 % of control | [3] 95 % of control

CC(=O)OCC1OC(n2c(O)c(/C=C3\C=Nc4ccccc43)sc2=S)C(OC(C)=O)C(OC(C)=O)C1OC(C)=O (configuration not stated)
inactive: dose: 12.5 mg/kg/injection, schedule: Q01DX005 (ip), vehicle: other 94 % of control | dose: 25.0 mg/kg/injection, schedule: Q01DX005 (ip), vehicle: other 91 % of control | dose: 50.0 mg/kg/injection, schedule: Q01DX005 (ip), vehicle: other 92 % of control | dose: 100.0 mg/kg/injection, schedule: Q01DX005 (ip), vehicle: other 111 % of control | dose: 200.0 mg/kg/injection, schedule: Q01DX005 (ip), vehicle: other 94 % of control

N#Cc1cc(Cl)c2c(c1Cl)Nc1c(Cl)ccc(Cl)c1S2
inactive: dose: 50.0 mg/kg/injection, schedule: Q01DX001 (ip), vehicle: saline 96 % of control | dose: 100.0 mg/kg/injection, schedule: Q01DX001 (ip), vehicle: saline 96 % of control | dose: 200.0 mg/kg/injection, schedule: Q01DX001 (ip), vehicle: saline 96 % of control | dose: 400.0 mg/kg/injection, schedule: Q01DX001 (ip), vehicle: saline 102 % of control

CC(=O)OC1CCC2(C)C(=CCC3C2CCC2(C)C3CCC2(O)C(C)=O)C1 (configuration not stated)
inactive: dose: 100.0 mg/kg/injection, schedule: Q01DX001 (ip), vehicle: Klucel (hydroxypropylcellulose) (HPC) 101 % of control | dose: 200.0 mg/kg/injection, schedule: Q01DX001 (ip), vehicle: Klucel (hydroxypropylcellulose) (HPC) 97 % of control | dose: 400.0 mg/kg/injection, schedule: Q01DX001 (ip), vehicle: Klucel (hydroxypropylcellulose) (HPC) 98 % of control

O=Cc1ccc2cc(Cl)ccc2n1
inactive: dose: 100.0 mg/kg/injection, schedule: Q01DX001 (ip), vehicle: other 93 % of control | dose: 200.0 mg/kg/injection, schedule: Q01DX001 (ip), vehicle: other 110 % of control | dose: 400.0 mg/kg/injection, schedule: Q01DX001 (ip), vehicle: other 106 % of control

c1ccc([C](c2ccccc2)(c2ccccc2)[Ge]([c]2ccccc2)([c]2ccccc2)[c]2ccccc2)cc1
inactive: dose: 12.8 mg/kg/injection, schedule: Q04DX002 (ip), vehicle: saline with Tween-80 93 % of control | dose: 32.0 mg/kg/injection, schedule: Q04DX002 (ip), vehicle: saline with Tween-80 96 % of control | dose: 80.0 mg/kg/injection, schedule: Q04DX002 (ip), vehicle: saline with Tween-80 89 % of control | dose: 200.0 mg/kg/injection, schedule: Q04DX002 (ip), vehicle: saline with Tween-80 89 % of control

CCOC(=O)C1OC1(C)c1ccccc1 (configuration not stated)
inactive: [11] 102 % of control | dose: 100.0 mg/kg/injection, schedule: Q04DX003 (ip), vehicle: saline 100 % of control | [12] 100 % of control | dose: 200.0 mg/kg/injection, schedule: Q04DX003 (ip), vehicle: saline 94 % of control | [13] 102 % of control | dose: 400.0 mg/kg/injection, schedule: Q04DX003 (ip), vehicle: saline 107 % of control

COc1cccc(OC)c1OCCCN1CCOCC1
inactive: dose: 25.0 mg/kg/injection, schedule: Q04DX003 (ip), vehicle: saline with Tween-80 99 % of control | dose: 50.0 mg/kg/injection, schedule: Q04DX003 (ip), vehicle: saline with Tween-80 100 % of control | [14] 94 % of control

C=CC1(C)CCC2C(=CCC3C(C)(COC4OC(CO)C(O)C(O)C4O)C(O)CCC23C)C1 (configuration not stated)
inactive: dose: 75.0 mg/kg/injection, schedule: Q01DX001 (ip), vehicle: saline 102 % of control | dose: 150.0 mg/kg/injection, schedule: Q01DX001 (ip), vehicle: saline 98 % of control

COc1cccc(C(=O)CC(O)(C(F)(F)F)C(F)(F)F)c1
inactive: dose: 50.0 mg/kg/injection, schedule: Q04DX003 (ip), vehicle: other 100 % of control | dose: 100.0 mg/kg/injection, schedule: Q04DX003 (ip), vehicle: other 96 % of control | dose: 200.0 mg/kg/injection, schedule: Q04DX003 (ip), vehicle: other 98 % of control | dose: 400.0 mg/kg/injection, schedule: Q04DX003 (ip), vehicle: other 104 % of control
